Test results taken from patent publication US11225505B2, “Antimicrobial polymyxin derivative compounds” (MONASH UNIVERSITY, priority 2015, dated 2022).
Values after ≈ are worked out from the molar mass of the structure shown. Where a SMILES comes first, the peptide text is derived from it. Bridges are numbered along the chain shown (N, C = ends). [ ]: non-standard residue; d: D form. The star is where a group is joined. X1 = O=C(c1ncc(Cl)cc1Cl)*; Dab = NCC[C@H](N)C(=O)O; Dap = NC[C@H](N)C(=O)O

Experiments:
Type in all cases: cell-based
[1] = tested on: Acinetobacter baumannii FADDI-AB030; test: microbe, parasite or virus in culture; conditions: FADDI-AB030
Protocol: MICs of the lipopeptides (trifluoroacetic acid salt, TFA) were determined by broth microdilution in cation-adjusted Mueller-Hinton broth (CAMHB) (Oxoid Australia, Thebarton, SA, Australia) according to the Clinical and Laboratory Standards Institute protocol (Clinical and Laboratory Standards Institute, Performance standards for antimicrobial susceptibility testing; twentyforth informational supplement M100-S24. Wayne, Pa., 2014). Polymyxin B sulphate was employed as the control. […] The following isolates were examined: Pseudomonas aeruginosa ATCC 27853, Pseudomonas aeruginosa FADDI-PA022*, Pseudomonas aeruginosa FADDI-PA01*, Pseudomonas aeruginosa FADDI-PA038*, Acinetobacter baumannii FADDI-AB034*, Acinetobacter baumannii ATCC 17978, Acinetobacter baumannii FADDI-AB030*, Klebsiella pneumoniae FADDI-KP032, Klebsiella pneumoniae FADDI-KP022*, Klebsiella pneumoniae Kp BM1*, Enterobacter cloacae FADDI-EC006, Enterobacter cloacae FADDI-EC001, and Enterobacter cloacae FADDI-EC003 (* Multi drug-resistant clinical isolates, § New Delhi Metallo-beta-lactamase-1 (NDM-1) producing). The results are illustrated in Tables 4 and 5. […]

[2] = tested on: Acinetobacter baumannii FADDI-AB034; conditions: FADDI-AB034
Protocol: (§1) MICs of the lipopeptides (trifluoroacetic acid salt, TFA) were determined by broth microdilution in cation-adjusted Mueller-Hinton broth (CAMHB) (Oxoid Australia, Thebarton, SA, Australia) according to the Clinical and Laboratory Standards Institute protocol (Clinical and Laboratory Standards Institute, Performance standards for antimicrobial susceptibility testing; twentyforth informational supplement M100-S24. Wayne, Pa., 2014). Polymyxin B sulphate was employed as the control. Antimicrobial activity of Compounds 1-104 against polymyxin-susceptible Gram-negative bacteria was examined. The following isolates were examined: Pseudomonas aeruginosa ATCC 27853, Pseudomonas aeruginosa FADDI-PA022*, Pseudomonas aeruginosa FADDI-PA01*, Pseudomonas aeruginosa FADDI-PA038*, Acinetobacter baumannii FADDI-AB034*, Acinetobacter baumannii ATCC 17978, Acinetobacter baumannii FADDI-AB030*, Klebsiella pneumoniae FADDI-KP032, Klebsiella pneumoniae FADDI-KP022*, Klebsiella pneumoniae Kp BM1*, Enterobacter cloacae FADDI-EC006, Enterobacter cloacae FADDI-EC001, and Enterobacter cloacae FADDI-EC003 (* Multi drug-resistant clinical isolates, § New Delhi Metallo-beta-lactamase-1 (NDM-1) producing). The results are illustrated in Tables 4 and 5.

[3] = tested on: Enterobacter cloacae FADDI-EC001; conditions: FADDI-EC001
Protocol: as §1

[4] = tested on: Klebsiella pneumoniae Kp BM1; conditions: Kp BM1
Protocol: as §1

[5] = tested on: Pseudomonas aeruginosa FADDI-PA038; conditions: FADDI-PA038
Protocol: as §1

[6] = tested on: Klebsiella pneumoniae FADDI-KP032; conditions: FADDI-KP032
Protocol: as §1

[7] = tested on: Enterobacter cloacae FADDI-EC006; conditions: FADDI-EC006
Protocol: as §1

[8] = tested on: Enterobacter cloacae FADDI-EC003; conditions: FADDI-EC003
Protocol: as §1

[9] = tested on: Pseudomonas aeruginosa FADDI-PA022; conditions: FADDI-PA022
Protocol: as §1

[10] = tested on: Acinetobacter baumannii ATCC 17978; conditions: ATCC 17978
Protocol: as §1

[11] = tested on: Klebsiella pneumoniae FADDI-KP022; conditions: FADDI-KP022
Protocol: as §1

[12] = tested on: Pseudomonas aeruginosa FADDI-PA01; conditions: FADDI-
Protocol: as §1

[13] = tested on: Pseudomonas aeruginosa ATCC 27853; conditions: ATCC 27853
Protocol: as §1

## C[C@@H]1NC(=O)[C@@H](Cc2ccccc2)NC(=O)[C@H](CCN)NC(=O)[C@@H](NC(=O)[C@H](CN)NC(=O)[C@@H](NC(=O)[C@H](CCN)NC(=O)c2ncc(Cl)cc2Cl)[C@@H](C)O)CCNC(=O)[C@H]([C@@H](C)O)NC(=O)[C@H](CCN)NC(=O)[C@H](CCN)NC1=O [Compound 9] (X1-[Dab]T[Dap][Dab][Dab][dF]A[Dab][Dab]T; lactam 4-C)
[1]
  Minimum inhibitory concentration: 2 µg/mL (≈ 1.69 µM)
[2]
  Minimum inhibitory concentration: 2 µg/mL (≈ 1.69 µM)
[3]
  Minimum inhibitory concentration: <0.125 µg/mL
[4]
  Minimum inhibitory concentration: 0.25 µg/mL (≈ 0.212 µM)
[5]
  Minimum inhibitory concentration: 0.5 µg/mL (≈ 0.423 µM)
[6]
  Minimum inhibitory concentration: 0.25 µg/mL (≈ 0.212 µM)
[7]
  Minimum inhibitory concentration: 1 µg/mL (≈ 0.847 µM)
[8]
  Minimum inhibitory concentration: <0.125 µg/mL
[9]
  Minimum inhibitory concentration: 0.25 µg/mL (≈ 0.212 µM)
[10]
  Minimum inhibitory concentration: 2 µg/mL (≈ 1.69 µM)
[11]
  Minimum inhibitory concentration: <0.125 µg/mL
[12]
  Minimum inhibitory concentration: 0.25 µg/mL (≈ 0.212 µM)
[13]
  Minimum inhibitory concentration: 0.25 µg/mL (≈ 0.212 µM)

## CC(C)C[C@H]1NC(=O)[C@H](CCN)NC(=O)[C@@H](NC(=O)[C@H](CN)NC(=O)[C@@H](NC(=O)[C@H](CCN)NC(=O)c2ncc(Cl)cc2Cl)[C@@H](C)O)CCNC(=O)[C@H]([C@@H](C)O)NC(=O)[C@H](CCN)NC(=O)[C@H](CCN)NC(=O)[C@H](C)NC1=O [Compound 10] (X1-[Dab]T[Dap][Dab][Dab][dL]A[Dab][Dab]T; lactam 4-C)
[1]
  Minimum inhibitory concentration: 8 µg/mL (≈ 6.97 µM)
[2]
  Minimum inhibitory concentration: 4 µg/mL (≈ 3.49 µM)
[3]
  Minimum inhibitory concentration: 0.25 µg/mL (≈ 0.218 µM)
[4]
  Minimum inhibitory concentration: 4 µg/mL (≈ 3.49 µM)
[5]
  Minimum inhibitory concentration: 1 µg/mL (≈ 0.872 µM)
[6]
  Minimum inhibitory concentration: 0.5 µg/mL (≈ 0.436 µM)
[7]
  Minimum inhibitory concentration: 0.5 µg/mL (≈ 0.436 µM)
[8]
  Minimum inhibitory concentration: 0.25 µg/mL (≈ 0.218 µM)
[9]
  Minimum inhibitory concentration: 0.5 µg/mL (≈ 0.436 µM)
[10]
  Minimum inhibitory concentration: 4 µg/mL (≈ 3.49 µM)
[11]
  Minimum inhibitory concentration: 0.25 µg/mL (≈ 0.218 µM)
[12]
  Minimum inhibitory concentration: 0.5 µg/mL (≈ 0.436 µM)
[13]
  Minimum inhibitory concentration: 0.25 µg/mL (≈ 0.218 µM)

## C[C@@H](O)[C@@H]1NC(=O)[C@H](CCN)NC(=O)[C@H](CCN)NC(=O)[C@H]([C@@H](C)O)NC(=O)[C@@H](Cc2ccccc2)NC(=O)[C@H](CCN)NC(=O)[C@@H](NC(=O)[C@H](CN)NC(=O)[C@@H](NC(=O)[C@H](CCN)NC(=O)c2ncc(Cl)cc2Cl)[C@@H](C)O)CCNC1=O [Compound 11] (X1-[Dab]T[Dap][Dab][Dab][dF]T[Dab][Dab]T; lactam 4-C)
[1]
  Minimum inhibitory concentration: 2 µg/mL (≈ 1.65 µM)
[2]
  Minimum inhibitory concentration: 1 µg/mL (≈ 0.826 µM)
[3]
  Minimum inhibitory concentration: <0.125 µg/mL
[4]
  Minimum inhibitory concentration: 1 µg/mL (≈ 0.826 µM)
[5]
  Minimum inhibitory concentration: 1 µg/mL (≈ 0.826 µM)
[6]
  Minimum inhibitory concentration: <0.125 µg/mL
[7]
  Minimum inhibitory concentration: <0.125 µg/mL
[8]
  Minimum inhibitory concentration: <0.125 µg/mL
[9]
  Minimum inhibitory concentration: 0.25 µg/mL (≈ 0.206 µM)
[10]
  Minimum inhibitory concentration: 1 µg/mL (≈ 0.826 µM)
[11]
  Minimum inhibitory concentration: <0.125 µg/mL
[12]
  Minimum inhibitory concentration: 0.5 µg/mL (≈ 0.413 µM)
[13]
  Minimum inhibitory concentration: 0.25 µg/mL (≈ 0.206 µM)

## CC(C)C[C@H]1NC(=O)[C@H](CCN)NC(=O)[C@@H](NC(=O)[C@H](CN)NC(=O)[C@@H](NC(=O)[C@H](CCN)NC(=O)c2ncc(Cl)cc2Cl)[C@@H](C)O)CCNC(=O)[C@H]([C@@H](C)O)NC(=O)[C@H](CCN)NC(=O)[C@H](CCN)NC(=O)[C@H](C(C)C)NC1=O [Compound 13] (X1-[Dab]T[Dap][Dab][Dab][dL]V[Dab][Dab]T; lactam 4-C)
[1]
  Minimum inhibitory concentration: 0.5 µg/mL (≈ 0.425 µM)
[2]
  Minimum inhibitory concentration: 2 µg/mL (≈ 1.7 µM)
[3]
  Minimum inhibitory concentration: <0.125 µg/mL
[4]
  Minimum inhibitory concentration: 0.25 µg/mL (≈ 0.213 µM)
[5]
  Minimum inhibitory concentration: 1 µg/mL (≈ 0.851 µM)
[6]
  Minimum inhibitory concentration: 0.25 µg/mL (≈ 0.213 µM)
[7]
  Minimum inhibitory concentration: <0.125 µg/mL
[8]
  Minimum inhibitory concentration: <0.125 µg/mL
[9]
  Minimum inhibitory concentration: 0.5 µg/mL (≈ 0.425 µM)
[10]
  Minimum inhibitory concentration: 1 µg/mL (≈ 0.851 µM)
[11]
  Minimum inhibitory concentration: 0.25 µg/mL (≈ 0.213 µM)
[12]
  Minimum inhibitory concentration: 0.5 µg/mL (≈ 0.425 µM)
[13]
  Minimum inhibitory concentration: 0.5 µg/mL (≈ 0.425 µM)
